# From ChEMBL document CHEMBL1201862, “PubChem BioAssay data set” (2004)
# Activity calls are given as the source filed them.
# Tests used:
# [1] = target: Polyadenylate-binding protein 1 (Homo sapiens, UniProt P11940); assay: blockers of PABP interaction with poly(A) – biochemical, fluorescence polarization, […] (AID 2014)
# [2] = target: Eukaryotic translation initiation factor 4H (Homo sapiens, UniProt Q15056); assay: eIF4H binding inhibition – biochemical, uHTS, fluorescence polarization, translation initiation inhibitor project, primary screen (AID 2012)
# [3] = target: T1, DNA dC->dU-editing enzyme APOBEC-3G (Homo sapiens, UniProt Q9HC16); assay: Dose Response confirmation of small molecule APOBEC3G DNA Deaminase Inhibitors via a fluorescence-based single-stranded DNA deaminase assay. [Related pubchem assays (depositor defined):AID493012, AID493028]; type: functional
# [4] = target: FAD-linked sulfhydryl oxidase ALR (Homo sapiens, UniProt P55789); assay: ALR-catalysed DTT oxidation blockers – biochemical, H2O2 detection, luminescence, cherry-pick, dose response (AID 493248)
# [5] = target: T2, Short transient receptor potential channel 4 (Mus musculus, UniProt Q9QUQ5); assay: calcium entry via TRPC4 opening agents – cell-based, HEK293 TRPC4/mu-opioid, Fluo-4 calcium, dose response (AID 434937); type: functional
# T2 sequence (Q9QUQ5 whole entry): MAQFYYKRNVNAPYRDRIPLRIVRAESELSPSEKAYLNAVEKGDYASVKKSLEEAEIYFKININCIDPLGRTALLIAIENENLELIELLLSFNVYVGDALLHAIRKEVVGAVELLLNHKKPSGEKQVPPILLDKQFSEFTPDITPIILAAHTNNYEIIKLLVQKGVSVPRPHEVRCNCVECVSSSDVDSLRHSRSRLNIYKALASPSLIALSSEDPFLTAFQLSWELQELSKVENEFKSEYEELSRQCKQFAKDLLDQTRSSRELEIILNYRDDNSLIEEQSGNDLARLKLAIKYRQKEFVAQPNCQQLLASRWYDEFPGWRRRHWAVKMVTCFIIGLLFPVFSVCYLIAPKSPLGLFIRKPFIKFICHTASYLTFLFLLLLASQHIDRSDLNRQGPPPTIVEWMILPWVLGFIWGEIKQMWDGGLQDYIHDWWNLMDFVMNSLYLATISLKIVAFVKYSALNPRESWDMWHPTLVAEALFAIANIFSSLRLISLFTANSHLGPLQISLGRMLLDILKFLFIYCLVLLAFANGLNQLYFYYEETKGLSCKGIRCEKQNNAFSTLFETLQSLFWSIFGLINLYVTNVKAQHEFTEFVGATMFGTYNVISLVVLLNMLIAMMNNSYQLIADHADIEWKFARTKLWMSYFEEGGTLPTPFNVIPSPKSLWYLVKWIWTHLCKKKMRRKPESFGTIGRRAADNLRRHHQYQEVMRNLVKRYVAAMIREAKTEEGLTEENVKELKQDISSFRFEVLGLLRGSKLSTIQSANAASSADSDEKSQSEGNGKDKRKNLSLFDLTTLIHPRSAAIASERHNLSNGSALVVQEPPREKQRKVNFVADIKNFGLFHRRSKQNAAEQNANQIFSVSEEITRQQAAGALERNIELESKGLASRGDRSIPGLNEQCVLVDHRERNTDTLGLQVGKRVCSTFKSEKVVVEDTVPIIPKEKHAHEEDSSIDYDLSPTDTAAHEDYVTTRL
# [6] = target: G-protein coupled receptor 55 (Homo sapiens, UniProt Q9Y2T6); assay: selective activators of receptor GPR55 – imaging, U2OS cells, beta-arrestin-GFP redistribution, primary screen (AID 1961); type: functional
# Large T antigen = Large T antigen (Simian virus 40, UniProt P03070); type: functional, Betapolyomavirus macacae;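 further: Confirmatory-stage PubChem screen for compounds that inhibit SV40 T antigen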
# [7] = target: Glucose-6-phosphate 1-dehydrogenase (Homo sapiens, UniProt P11413); assay: inhibition of Homo sapiens G6PD, dose series – biochemical, fluorescence, selectivity assay for P. falciparum G6PD inhibitor project, dose response (AID 504792); type: functional
# [8] = target: T3, Replicative DNA helicase DnaB (Mycobacterium tuberculosis, UniProt P9WMR3); assay: DnaB intein splicing inhibitors, dose response, biochemical, cell-free fluorescence (AID 449749); type: functional
# T3 sequence (P9WMR3 whole entry): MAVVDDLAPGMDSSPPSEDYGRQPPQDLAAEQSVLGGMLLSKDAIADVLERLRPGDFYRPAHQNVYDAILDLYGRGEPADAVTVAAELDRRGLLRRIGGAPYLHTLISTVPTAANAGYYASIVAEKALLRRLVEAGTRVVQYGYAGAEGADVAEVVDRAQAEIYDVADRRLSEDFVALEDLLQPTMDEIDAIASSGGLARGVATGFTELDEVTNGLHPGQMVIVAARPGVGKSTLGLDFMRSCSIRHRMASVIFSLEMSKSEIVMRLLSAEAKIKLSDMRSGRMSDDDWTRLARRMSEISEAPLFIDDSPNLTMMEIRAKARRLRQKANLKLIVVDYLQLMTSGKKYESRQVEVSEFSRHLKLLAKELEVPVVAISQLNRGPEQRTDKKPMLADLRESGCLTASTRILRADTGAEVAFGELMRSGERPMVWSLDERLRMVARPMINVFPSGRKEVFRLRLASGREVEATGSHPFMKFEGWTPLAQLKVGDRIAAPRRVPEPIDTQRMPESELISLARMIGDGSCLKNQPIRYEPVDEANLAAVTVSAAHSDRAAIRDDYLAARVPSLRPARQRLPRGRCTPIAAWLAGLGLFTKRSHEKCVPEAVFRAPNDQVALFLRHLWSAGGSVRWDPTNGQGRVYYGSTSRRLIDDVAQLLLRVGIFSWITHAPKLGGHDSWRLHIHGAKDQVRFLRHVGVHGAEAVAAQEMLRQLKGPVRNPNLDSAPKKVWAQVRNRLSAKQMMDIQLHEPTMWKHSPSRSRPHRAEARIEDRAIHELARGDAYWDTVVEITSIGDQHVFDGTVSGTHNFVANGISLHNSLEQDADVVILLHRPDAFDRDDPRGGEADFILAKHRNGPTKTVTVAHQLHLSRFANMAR
# Protein RecA = target: T4, Protein RecA (Mycobacterium tuberculosis, UniProt P9WHJ3); assay: Fluorescence Cell-Free Homogeneous Dose Retest to Identify Inhibitors of RecA-Intein Splicing Activity. [Related pubchem assays (depositor defined):AID2097, AID2223, AID489010, AID492950]; type: functional
# T4 sequence (P9WHJ3 whole entry): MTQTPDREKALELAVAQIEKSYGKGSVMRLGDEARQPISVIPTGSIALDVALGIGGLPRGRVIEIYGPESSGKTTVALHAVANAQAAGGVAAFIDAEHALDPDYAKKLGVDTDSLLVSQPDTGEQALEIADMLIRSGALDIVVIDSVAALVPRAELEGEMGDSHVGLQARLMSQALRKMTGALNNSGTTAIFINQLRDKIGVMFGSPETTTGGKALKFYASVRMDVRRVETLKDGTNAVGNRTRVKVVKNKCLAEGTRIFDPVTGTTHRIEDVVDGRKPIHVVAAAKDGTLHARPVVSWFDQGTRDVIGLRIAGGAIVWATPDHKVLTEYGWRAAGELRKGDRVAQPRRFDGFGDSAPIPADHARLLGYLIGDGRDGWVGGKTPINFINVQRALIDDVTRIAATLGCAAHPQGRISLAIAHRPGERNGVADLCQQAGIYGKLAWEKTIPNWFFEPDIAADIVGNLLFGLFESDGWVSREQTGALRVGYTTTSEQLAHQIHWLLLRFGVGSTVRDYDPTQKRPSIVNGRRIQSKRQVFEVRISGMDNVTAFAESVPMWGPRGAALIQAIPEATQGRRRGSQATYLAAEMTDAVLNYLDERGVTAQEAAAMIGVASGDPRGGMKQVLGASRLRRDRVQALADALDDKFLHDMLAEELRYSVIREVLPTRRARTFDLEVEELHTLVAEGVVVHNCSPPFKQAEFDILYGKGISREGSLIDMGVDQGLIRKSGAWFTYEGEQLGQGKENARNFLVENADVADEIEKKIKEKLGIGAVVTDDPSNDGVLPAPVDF
# [9] = target: T1, DNA dC->dU-editing enzyme APOBEC-3G; type: functional
# [10] = target: DNA dC->dU-editing enzyme APOBEC-3A (Homo sapiens, UniProt P31941); assay: Dose Response confirmation of small molecule APOBEC3A DNA Deaminase Inhibitors via a fluorescence-based single-stranded DNA deaminase assay. [Related pubchem assays (depositor defined):AID493011, AID493024]; type: functional
# Aminopeptidase N = target: T5, Aminopeptidase N (Plasmodium falciparum FcB1/Columbia, UniProt O96935); assay: malaria alanyl aminopeptidase activity blockers – biochemical, fluorogenic H-Leu-NHMec substrate, 1536-well (AID 1445); parameters: species or system Plasmodium falciparum 3D7, 3D7
# T5 sequence (O96935 whole entry): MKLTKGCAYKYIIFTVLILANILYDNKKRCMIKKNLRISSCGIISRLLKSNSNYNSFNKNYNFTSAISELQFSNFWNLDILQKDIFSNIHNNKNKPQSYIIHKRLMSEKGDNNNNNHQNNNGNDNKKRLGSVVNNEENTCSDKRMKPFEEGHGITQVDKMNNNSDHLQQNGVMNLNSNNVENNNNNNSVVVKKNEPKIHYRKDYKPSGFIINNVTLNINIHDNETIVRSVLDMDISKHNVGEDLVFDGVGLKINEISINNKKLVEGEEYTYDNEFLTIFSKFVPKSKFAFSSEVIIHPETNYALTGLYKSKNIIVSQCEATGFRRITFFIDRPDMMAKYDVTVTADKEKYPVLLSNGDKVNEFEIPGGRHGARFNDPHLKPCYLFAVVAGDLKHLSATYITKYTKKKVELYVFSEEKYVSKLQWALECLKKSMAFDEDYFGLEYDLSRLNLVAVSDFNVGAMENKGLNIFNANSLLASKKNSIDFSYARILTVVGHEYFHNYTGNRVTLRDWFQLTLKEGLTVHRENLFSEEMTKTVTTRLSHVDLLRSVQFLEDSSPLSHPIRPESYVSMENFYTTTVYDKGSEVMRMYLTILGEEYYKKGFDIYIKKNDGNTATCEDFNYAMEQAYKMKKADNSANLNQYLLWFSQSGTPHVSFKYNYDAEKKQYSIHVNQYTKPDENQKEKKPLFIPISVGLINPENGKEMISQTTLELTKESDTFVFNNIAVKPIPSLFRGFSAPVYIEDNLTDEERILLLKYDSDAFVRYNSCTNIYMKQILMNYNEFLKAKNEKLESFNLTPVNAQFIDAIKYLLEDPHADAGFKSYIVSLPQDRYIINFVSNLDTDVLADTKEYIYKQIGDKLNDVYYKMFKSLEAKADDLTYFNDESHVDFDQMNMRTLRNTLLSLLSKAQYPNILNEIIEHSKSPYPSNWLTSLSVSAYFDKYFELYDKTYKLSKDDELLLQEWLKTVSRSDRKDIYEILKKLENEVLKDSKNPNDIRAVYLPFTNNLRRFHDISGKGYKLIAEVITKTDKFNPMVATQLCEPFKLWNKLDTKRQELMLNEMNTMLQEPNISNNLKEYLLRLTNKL
# [11] = viability of uninfected HEp-2 cells – cell-based, HTS, cytotoxicity control for RSV inhibitor project, dose response (AID 2410); type: functional; conditions: human respiratory syncytial virus
# Sequence of Polyadenylate-binding protein 1 (P11940 whole entry): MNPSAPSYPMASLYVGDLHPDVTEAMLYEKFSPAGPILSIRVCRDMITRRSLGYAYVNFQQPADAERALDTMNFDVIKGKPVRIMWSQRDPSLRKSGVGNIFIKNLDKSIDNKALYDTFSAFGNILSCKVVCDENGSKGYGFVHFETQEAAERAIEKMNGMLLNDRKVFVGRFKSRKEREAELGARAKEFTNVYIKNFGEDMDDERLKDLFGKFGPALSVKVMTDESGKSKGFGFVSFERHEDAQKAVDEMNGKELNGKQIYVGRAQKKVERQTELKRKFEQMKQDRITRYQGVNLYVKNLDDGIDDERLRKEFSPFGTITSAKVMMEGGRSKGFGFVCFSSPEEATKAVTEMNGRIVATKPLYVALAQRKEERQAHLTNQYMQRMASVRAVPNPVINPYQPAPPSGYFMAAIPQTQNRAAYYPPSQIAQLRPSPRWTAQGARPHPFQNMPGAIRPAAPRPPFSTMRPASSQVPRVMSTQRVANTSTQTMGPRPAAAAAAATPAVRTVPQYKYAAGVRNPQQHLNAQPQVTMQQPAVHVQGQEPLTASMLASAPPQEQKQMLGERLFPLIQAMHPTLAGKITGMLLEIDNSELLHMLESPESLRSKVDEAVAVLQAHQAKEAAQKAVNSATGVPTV
# Sequence of Glucose-6-phosphate 1-dehydrogenase (P11413 whole entry): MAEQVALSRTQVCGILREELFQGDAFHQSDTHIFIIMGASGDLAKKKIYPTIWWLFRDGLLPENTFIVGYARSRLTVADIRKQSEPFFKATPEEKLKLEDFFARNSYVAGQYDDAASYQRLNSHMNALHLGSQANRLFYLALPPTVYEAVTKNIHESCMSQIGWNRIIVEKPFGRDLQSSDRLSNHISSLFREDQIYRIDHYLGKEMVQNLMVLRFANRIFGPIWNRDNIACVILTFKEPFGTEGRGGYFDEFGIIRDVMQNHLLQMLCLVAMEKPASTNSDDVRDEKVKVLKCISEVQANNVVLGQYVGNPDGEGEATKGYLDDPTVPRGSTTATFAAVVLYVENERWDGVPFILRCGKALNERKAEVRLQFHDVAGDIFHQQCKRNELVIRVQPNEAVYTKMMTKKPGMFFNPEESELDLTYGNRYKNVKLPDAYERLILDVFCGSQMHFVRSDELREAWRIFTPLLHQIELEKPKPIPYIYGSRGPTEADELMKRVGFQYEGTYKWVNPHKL
# Sequence of DNA dC->dU-editing enzyme APOBEC-3A (P31941 whole entry): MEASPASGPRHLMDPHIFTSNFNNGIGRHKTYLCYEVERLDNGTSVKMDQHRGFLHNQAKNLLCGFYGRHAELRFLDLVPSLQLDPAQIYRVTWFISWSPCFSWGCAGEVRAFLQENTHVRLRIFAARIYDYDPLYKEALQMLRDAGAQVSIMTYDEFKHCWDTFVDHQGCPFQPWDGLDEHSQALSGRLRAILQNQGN
# T1 sequence (Q9HC16 whole entry): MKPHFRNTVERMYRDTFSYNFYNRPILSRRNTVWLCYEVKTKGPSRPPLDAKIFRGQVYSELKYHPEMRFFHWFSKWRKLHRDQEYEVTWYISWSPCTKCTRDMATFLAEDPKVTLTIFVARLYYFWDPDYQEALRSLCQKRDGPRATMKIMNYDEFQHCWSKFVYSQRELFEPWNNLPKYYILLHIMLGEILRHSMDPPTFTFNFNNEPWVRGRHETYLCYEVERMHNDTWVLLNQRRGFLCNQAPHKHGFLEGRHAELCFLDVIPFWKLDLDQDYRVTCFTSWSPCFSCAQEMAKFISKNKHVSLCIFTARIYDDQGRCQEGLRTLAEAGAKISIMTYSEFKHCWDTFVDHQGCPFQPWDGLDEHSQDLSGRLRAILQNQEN
# Sequence of G-protein coupled receptor 55 (Q9Y2T6 whole entry): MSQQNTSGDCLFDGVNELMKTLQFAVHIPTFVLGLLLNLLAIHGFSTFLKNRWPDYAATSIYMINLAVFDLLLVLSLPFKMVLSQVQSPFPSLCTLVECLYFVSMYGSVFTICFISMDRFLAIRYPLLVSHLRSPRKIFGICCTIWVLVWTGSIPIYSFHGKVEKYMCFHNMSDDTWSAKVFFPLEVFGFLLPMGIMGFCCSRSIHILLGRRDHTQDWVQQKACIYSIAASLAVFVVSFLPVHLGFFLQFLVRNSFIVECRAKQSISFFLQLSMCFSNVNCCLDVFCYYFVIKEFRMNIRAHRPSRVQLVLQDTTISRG
# Sequence of Large T antigen (P03070 whole entry): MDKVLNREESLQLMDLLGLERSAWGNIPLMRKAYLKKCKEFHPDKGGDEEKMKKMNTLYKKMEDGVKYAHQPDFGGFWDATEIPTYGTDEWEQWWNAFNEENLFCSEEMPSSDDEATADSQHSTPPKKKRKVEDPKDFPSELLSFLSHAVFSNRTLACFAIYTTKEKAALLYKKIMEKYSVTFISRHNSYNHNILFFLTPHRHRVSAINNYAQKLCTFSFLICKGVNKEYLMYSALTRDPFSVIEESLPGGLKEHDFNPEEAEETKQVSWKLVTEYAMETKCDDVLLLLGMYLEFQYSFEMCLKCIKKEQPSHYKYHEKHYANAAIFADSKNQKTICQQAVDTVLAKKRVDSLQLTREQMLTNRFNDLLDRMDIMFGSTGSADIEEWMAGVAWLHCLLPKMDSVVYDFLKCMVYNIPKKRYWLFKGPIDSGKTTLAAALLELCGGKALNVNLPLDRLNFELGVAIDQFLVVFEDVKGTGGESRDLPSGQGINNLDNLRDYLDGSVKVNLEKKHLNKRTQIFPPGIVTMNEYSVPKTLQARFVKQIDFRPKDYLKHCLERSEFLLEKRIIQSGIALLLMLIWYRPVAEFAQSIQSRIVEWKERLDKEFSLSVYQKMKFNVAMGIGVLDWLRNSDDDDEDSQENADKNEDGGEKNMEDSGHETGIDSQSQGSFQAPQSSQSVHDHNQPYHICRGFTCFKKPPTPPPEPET
# Sequence of FAD-linked sulfhydryl oxidase ALR (P55789 whole entry): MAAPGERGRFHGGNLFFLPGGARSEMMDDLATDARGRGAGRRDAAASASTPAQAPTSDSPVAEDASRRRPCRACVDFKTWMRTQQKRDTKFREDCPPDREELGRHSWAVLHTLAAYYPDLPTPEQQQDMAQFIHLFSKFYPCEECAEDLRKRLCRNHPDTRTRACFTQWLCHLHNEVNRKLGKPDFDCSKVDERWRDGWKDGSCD
compound,measurement,setting,value
CCN1C(=NCC(C)C)N[C@@H](c2cccc(F)c2)C(C(=O)OC)=C1C,IC50,[1],5.33 µM (active)
same,IC50,[2],> 100 µM (inactive)
O=S(=O)(Nc1ccc(O)c(NS(=O)(=O)c2ccccc2)c1)c1ccccc1,IC50,[3],55.1 µM (active)
same,AC50,[4],1.23 µM (active)
Cc1cc(=O)n2nc(-c3ccccc3)sc2c1C#N,IC50,[3],39.2 µM (active)
CCn1c(N2CCN(S(=O)(=O)CC)CC2)nc2ccccc21,EC50,[5],2.66 µM (active)
COc1ccc(C(=O)NC(=S)NCc2ccc(-c3nc4ccccc4o3)cc2)cc1OC,EC50,[6],> 32 µM (inactive)
CC1(C)Nc2ccc(O)cc2-c2c1ssc2=S,IC50,Large T antigen,> 100 µM (active)
same,IC50,[7],> 80 µM (inactive)
same,AC50,[8],9 µM (active)
same,EC50,Protein RecA,0.998 µM (active)
CCN1C(NCCOC)=N[C@@H](CCc2ccccc2)[C@H](C(=O)OC)[C@H]1C,IC50,[9],4.15 µM (active)
same,IC50,[10],3.39 µM (active)
same,IC50,[1],8.16 µM (active)
same,IC50,[2],> 100 µM (inactive)
O=C(NCCNC1CCC(c2ccccc2)CC1)c1cccs1 (centres undefined),EC50,[5],0.335 µM (active)
O=C(NCc1ccccc1)C1CCN(S(=O)(=O)c2cccc3cccnc23)CC1,IC50,Aminopeptidase N,42.1 µM (active)
Cc1nnc(SCC(=O)c2cc(C)n(-c3ccc4c(c3)OCO4)c2C)s1,IC50,[7],> 80 µM (inactive)
CC(CCc1ccccc1)NC(=O)C(Cc1ccccc1)NS(=O)(=O)c1cccs1 (centres undefined),IC50,Aminopeptidase N,71.4 µM (active)
CN(C)c1cccc2c1c(NC(=O)c1ccc(F)cc1)nn2C,IC50,[7],> 80 µM (inactive)
CCOCCCn1c(S)nnc1-c1ccc(Cl)cc1,IC50,[3],13.8 µM (active)
C[N+]1(C)C2CCC1CC(OC(=O)c1ccccc1)C2 (centres undefined),IC50,[9],1.75 µM (active)
same,IC50,[10],2.96 µM (active)
COC(=O)C1=C(C)N(Cc2ccccc2)C(NCCCOC(C)C)=N[C@H]1c1ccccc1,IC50,[9],5.12 µM (active)
same,IC50,[10],3.37 µM (active)
CCOc1ccccc1/N=C1/SCCCN1C,IC50,[1],4.4 µM (active)
same,IC50,[2],> 100 µM (inactive)
CCOc1cc(C2Nc3cccc4cccc(c34)N2)ccc1O,EC50,[6],8.01 µM (active)
same,CC50,[11],20.2 µM (active)
